Structures are written as SMILES. Converted amounts (≈) assume the structure as drawn. The source made the active and inactive calls. The calls are words filed in the database; no cut-off is given here. Where only a bound is given, the exact number is not on record here.

17 molecules from ChEMBL document CHEMBL5131429, “Synthesis and antifungal evaluation of phenol-derived bis(indolyl)methanes combined with FLC against Candida albicans” (Bioorg Med Chem Lett, 2022) can be followed below.

The subject of series [1] is Candida albicans. The series is described as follows: Antifungal activity against Candida albicans SC5314 assessed as fractional inhibitory concentration index in presence of fluconazole by microdilution method. Type of series: functional.
The subject of series [2] is Candida albicans. Briefly: Antifungal activity against Candida albicans SC5314 by microdilution method. It is filed as functional.
Series [3] deals with Candida albicans. The series is described as follows: Antifungal activity against Candida albicans SC5314 in presence of fluconazole by microdilution method. It is filed as functional.
Series [4] concerns Candida albicans. The series is described as follows: Antifungal activity against Candida albicans CA23 assessed as fractional inhibitory concentration index in presence of fluconazole by microdilution method. Type of series: functional.
In series [5] the test system is Candida albicans. The series is described as follows: Antifungal activity against Candida albicans CA23 in presence of fluconazole by microdilution method. Type of series: functional.
The test system of series [6] is Candida albicans. Briefly: Antifungal activity against Candida albicans CA23 by microdilution method. It is filed as functional.
The test system of series [7] is Candida albicans. Briefly: Antifungal activity against Candida albicans CA187 by microdilution method. It is filed as functional.
Series [8] has as its system Candida albicans. The series is described as follows: Antifungal activity against Candida albicans CA602 by microdilution method. Type of series: functional.
Series [9] relates to Candida albicans. The series is described as follows: Antifungal activity against Candida albicans CA800 by microdilution method. Type of series: functional.
Series [10] has as its system Candida albicans. The series is described as follows: Antifungal activity against Candida albicans CA3816 by microdilution method. It is filed as functional.
Series [11] relates to Candida albicans. Briefly: Antifungal activity against Candida albicans CA3511 by microdilution method. Type of series: functional.
Series [12] relates to Candida albicans. The series is described as follows: Antifungal activity against Candida albicans CA5408 by microdilution method. It is filed as functional.
Series [13] relates to Candida albicans. The series is described as follows: Antifungal activity against Candida albicans CA558 by microdilution method. Type of series: functional.
Series [14] is described as follows: Cytotoxicity against human 16HBE by MTS assay. Type of series: toxicity, cell-based. Conditions: 16HBE14o- cells.
Series [15] is described as follows: Cytotoxicity against PBMC (unknown origin) by MTT assay. Type of series: toxicity, cell-based.
Series [16] has as its system Candida albicans. The series is described as follows: Antifungal activity against Candida albicans ATCC14053 by microdilution method. Type of series: functional.
In series [17] the test system is Candida albicans. Briefly: Induction of mitochondrial membrane potential loss in Candida albicans at 1 ug/ml after 16 hrs by JC-1 staining based fluorescence microplate reader. It is filed as functional, organism-based. Conditions: dose 1.0 µg/ml.

With `Oc1ccc(O)c(C(c2c[nH]c3ccccc23)c2c[nH]c3ccccc23)c1`, the “fractional inhibitory concentration index (FICI)” value is on record as 0.07 in series [1] and 0.98 in series [4]. In addition, the MIC80 was found to be 32.1 µg/mL (≈ 90.5 µM) in series [2], 1.05 µg/mL in series [3], 5.7 µg/mL in series [5] and 5.91 µg/mL (≈ 16.7 µM) in series [6].

Consider `Oc1cc(F)c(Br)cc1C(c1c[nH]c2ccccc12)c1c[nH]c2ccccc12`, for which the “fractional inhibitory concentration index (FICI)” value in series [1] was determined as 0.2; in series [4] it was 0.02. Moreover, the MIC80 was 4.97 µg/mL (≈ 11.4 µM) in [2], 0.82 µg/mL in series [3], 5.95 µg/mL in [5] and greater than 200 µg/mL in series [6].

Regarding `O=[N+]([O-])c1ccc(O)c(C(c2c[nH]c3ccccc23)c2c[nH]c3ccccc23)c1`, the MIC80 in series [2] turned out to be 0.69 µg/mL (≈ 1.8 µM); in series [3], 25.6 µg/mL; in [5] it was 29.3 µg/mL; in series [6] it was 180 µg/mL (≈ 471 µM). Also, in [4], the “fractional inhibitory concentration index (FICI)” value is 0.18.

As to `CN(C)c1ccc(C(c2c[nH]c3ccccc23)c2c[nH]c3ccccc23)c(O)c1`, the “fractional inhibitory concentration index (FICI)” value in series [1] was 2.57; in series [4] it was 0.24. In addition, the MIC80 in series [2] was found to be 0.37 µg/mL (≈ 0.97 µM); in [3] it was 0.94 µg/mL; in series [5] it was 5.76 µg/mL; in series [6] it was 24 µg/mL (≈ 62.8 µM).

Regarding `Cc1ccc(O)c(C(c2c[nH]c3ccccc23)c2c[nH]c3ccccc23)c1`, the “fractional inhibitory concentration index (FICI)” value in series [1] was 0.33; in series [4] it was 0.02. Moreover, the MIC80 in series [2] is 23.2 µg/mL (≈ 65.9 µM); in series [3] it was 4.28 µg/mL; in series [5] it was 5.83 µg/mL; in series [6], greater than 200 µg/mL.

In the case of `OC(Cn1cncn1)(Cn1cncn1)c1ccc(F)cc1F` [FLUCONAZOLE], the MIC80 in series [7] was greater than 200 µg/mL; in [2], 5.79 µg/mL (≈ 18.9 µM); in series [8], greater than 200 µg/mL; in series [9], greater than 200 µg/mL; in [10] it was greater than 200 µg/mL; in [11], greater than 200 µg/mL. Also, the MIC80 in [12], in series [13], in [16] and in [6] was greater than 200 µg/mL in each case. Besides, the CC50 is greater than 1000 µg/mL in series [14] and 676 µg/mL (≈ 2210 µM) in series [15]. Moreover, the result in [17] was Active.

Turning to `Oc1ccccc1C(c1c[nH]c2ccccc12)c1c[nH]c2ccccc12`, the entries for the “fractional inhibitory concentration index (FICI)” value in series [1] and in series [4] were 0.12 and 0.03, respectively. The MIC80 was greater than 200 µg/mL in [2], 3.22 µg/mL in series [3], 6.07 µg/mL in series [5] and greater than 200 µg/mL in series [6].

In the case of `COc1ccc(C(c2c[nH]c3ccccc23)c2c[nH]c3ccccc23)c(O)c1`, the figures for the “fractional inhibitory concentration index (FICI)” value in [1] and in [4] were 0.58 and 0.18, respectively. Further, the MIC80 in [2] is 1.85 µg/mL (≈ 5.02 µM); in series [3] it was 1.01 µg/mL; in series [5], 5.79 µg/mL; in series [6], 32.7 µg/mL (≈ 88.9 µM).

With `Cc1ccc(C(c2c[nH]c3ccccc23)c2c[nH]c3ccccc23)c(O)c1`, the “fractional inhibitory concentration index (FICI)” value in series [1] amounted to 0.14; in series [4] it was 0.02. In addition, the MIC80 in [2] is greater than 200 µg/mL; in [3], 3.67 µg/mL; in [5], 5.75 µg/mL; in [6], 37 µg/mL (≈ 105 µM).

With `Oc1ccc(Br)cc1C(c1c[nH]c2ccccc12)c1c[nH]c2ccccc12`, the “fractional inhibitory concentration index (FICI)” value in [1] is on record as 0.13; in [4], 0.02. The MIC80 was greater than 200 µg/mL in series [2], 3.58 µg/mL in series [3], 5.81 µg/mL in series [5] and greater than 200 µg/mL in series [6].

Turning to `Oc1cc(F)ccc1C(c1c[nH]c2ccccc12)c1c[nH]c2ccccc12`, the results for the “fractional inhibitory concentration index (FICI)” value in [1] and in [4] were 0.58 and 0.02, respectively. Moreover, the MIC80 in series [2] is greater than 200 µg/mL; in series [3] it was 15.5 µg/mL; in series [5], 7.4 µg/mL; in series [6], greater than 200 µg/mL.

With `Oc1c(Br)cc(Br)cc1C(c1c[nH]c2ccccc12)c1c[nH]c2ccccc12`, the results for the “fractional inhibitory concentration index (FICI)” value in series [1] and in [4] were 0.11 and 0.02, respectively. Besides, the MIC80 in [2] is greater than 200 µg/mL; in series [3], 2.85 µg/mL; in series [5] it was 6.01 µg/mL; in [6], greater than 200 µg/mL.

On to `Oc1c(Cl)cccc1C(c1c[nH]c2ccccc12)c1c[nH]c2ccccc12`, for which the entries for the “fractional inhibitory concentration index (FICI)” value in [1] and in series [4] were 0.05 and 0.02, respectively. Moreover, the MIC80 is greater than 200 µg/mL in series [2], 1.31 µg/mL in series [3], 5.82 µg/mL in [5] and greater than 200 µg/mL in [6].

Turning to `Oc1ccc(F)cc1C(c1c[nH]c2ccccc12)c1c[nH]c2ccccc12`, the “fractional inhibitory concentration index (FICI)” value in series [1] came out at 0.04; in series [4], 0.02. Besides, the MIC80 in series [2] is greater than 200 µg/mL; in [3], 0.98 µg/mL; in series [5], 5.92 µg/mL; in series [6] it was greater than 200 µg/mL.

On to `Oc1ccc(Cl)cc1C(c1c[nH]c2ccccc12)c1c[nH]c2ccccc12`, for which the results for the “fractional inhibitory concentration index (FICI)” value in [1] and in [4] were 0.12 and 0.1, respectively. The MIC80 was greater than 200 µg/mL in series [2], 3.27 µg/mL in series [3], 31.8 µg/mL in series [5] and greater than 200 µg/mL in series [6].

In the case of `Oc1c(Cl)cc(Br)cc1C(c1c[nH]c2ccccc12)c1c[nH]c2ccccc12`, the “fractional inhibitory concentration index (FICI)” value in series [1] is 0.04; in series [4] it was 0.36. In addition, the MIC80 in [2] is greater than 200 µg/mL; in series [3], 0.9 µg/mL; in series [5], 6.59 µg/mL; in series [6] it was 18.3 µg/mL (≈ 40.6 µM).

With `Oc1c(Cl)cc(Cl)cc1C(c1c[nH]c2ccccc12)c1c[nH]c2ccccc12`, the “fractional inhibitory concentration index (FICI)” value in [1] and in series [4] was 0.02 each time. The MIC80 in series [2] was greater than 200 µg/mL; in [3], 0.55 µg/mL; in series [5], 5.88 µg/mL; in series [6], greater than 200 µg/mL.
